Experimental data: publication PMC5155426, “Organic Redox Species in Aqueous Flow Batteries: Redox Potentials, Chemical Stability and Solubility” (Scientific Reports, 2016)
Where “and” joins values, the source holds several entries; their conditions need not be identical. Equal entries are not always repeated. Entries after “also recorded” stand apart in the source; their conditions may differ. Where two headings read alike, the source gives them in different places.

Tests used:
[1] = cited from earlier work; for chemical stability (in water): ref 29 (tetracyano benzoquinone), 30 (dicyano dichloro benzoquinone), 31 (tetracarboxyl para benzoquinone), 32 (duroquinone)
[2] = Cyclic voltammetry: formal redox potential, peak current ratio, electrochemical reversibility; assay type: physicochemical
Experimental: The investigated compounds were used as-purchased and without any purification. […] For each series of CVs, a freshly polished electrode was used. The CVs for soluble compounds in 1 mM concentration were recorded in a glass beaker with a customized lid in nitrogen purged solutions of three different pHs, namely pH 0 (1 M H2SO4), pH 7 (0.5 M phosphate buffer) and pH 13 (1 M NaOH). The pH of the NaOH solution is taken as 13 to account for carbonization of the solution with exposure to air. A background CV was recorded before each CV experiment to exclude background contaminations. The CVs of insoluble compounds in 1 M H2SO4, or 0.5 M phosphate buffer were recorded as follows: 6 mL of the supporting electrolyte was mixed with approximately 4 mL of acetone, and then a small amount of the quinone was added so that its concentration was around 1 mM.
Each CV was analyzed in terms of peak potentials and peak currents. Peak currents were determined by subtracting a polynomial fit of the background from the recorded current as exemplified in Supplementary, S1. A plot of the absolute values of the peak currents to the square root of the scan rate was constructed and, when reasonable, a linear fit included to evaluate the electrochemical (Nernstian) reversibility of the electrochemical reaction. The peak current Ip for reversible reactions are given by equation (1).
Where F is the Faraday constant, R the gas constant, T the temperature, n the number of electron transferred, A the area of the electrode, DOthe diffusion coefficient and CO^*the bulk concentration of the analyte and v the scan rate. The peak current ratio is expected to be close to one for reversible species. The formal redox potential (E^0’), which is the adjusted form of the standard redox potential, where effects of the medium is taken into account, is reported here as the midpoint potential between the two peak potentials in the CV[24]. All half-cell potentials in this work refer to the normal hydrogen electrode (VNHE).

[3] = Visual inspection of dissolved samples on standing (thixotropy, phase separation); assay type: physicochemical
Experimental: Dissolved samples were left to stand for 12 hours and visually inspected for thixotropy using a vortex generator. For very insoluble compounds the amount of sample was decreased to 0.01 g and the dissolution time increased up to 24 h.
In practical RFBs thixotropy is not wanted, as the redox solutions can be kept still for long times. […] Thixotropy of AQ dyes in aqueous dispersions has been described earlier, as well as some methods to overcome the problem such as addition of polyvinylpyrrolidone to the solution[43].

[4] = Aqueous solubility estimation (OECD test #105) in 1 M supporting electrolytes; details: for solubility compared with AQDS(2,7) and AQS(2): sulfonated AQs
Experimental: After each addition the test tube was ultrasonicated and/or shaken vigorously using a Vortex Generator for at least 10 minutes at room temperature. Then the tube was inspected visually for undissolved sample and the addition of supporting electrolyte solution continued until the sample seemed just dissolved. The volumes just before and after full dissolution are used for calculating the solubility interval (Supplementary, S4 and S5) and the solubility is estimated as the average between the two.

[5] = pKa of the central (hydro)quinone groups estimated from the Pourbaix diagram; assay type: physicochemical; details: aqueous media, estimated from slope change in Pourbaix diagram, Fig. 5
Experimental: Quinones generally undergo a reversible two-electron reduction/oxidation. The redox potential is strongly pH dependent, as the reaction may or may not involve two protons as illustrated in the scheme-of-squares mechanistic pathway in Fig. 3 [26]. At pH < pKa1, the reaction includes two protons and thus E^0’ decreases with 59 mV per pH unit (at 25 °C)[24]. At pKa1 < pH < pKa2 and pKa2 < pH only one and no protons are involved, whereby E^0’ decreases with 30 and 0 mV per pH unit, respectively. Generally, the reactions that include protons are slower and result in a lower electrochemical rate constant (k0) and may ultimately lead to higher charge-transfer resistance in the RFB. Thus, the choice of pH in the RFB environment strongly influences quinone electrochemical performance.
Similarly to sulfonated AQs, the positions of the hydroxyl groups affect E^0’, but in acidic only to a small extent. […] The three former all have the hydroxyl groups on positions close to the quinone groups. The difference in E^0’ for these hydroxylated AQs and others may be found in the pKa values of the central (hydro)quinone groups. Those are not trivial to measure given the insolubility at lower pH values for hydroxylated AQs, but they can be estimated from the Pourbaix diagram in Fig. 5 [24][26]. For instance, in the Pourbaix diagram of AQDS(2,7), E^0’ follows the expected −59 mv/pH unit from pH 0 to pH 7 (pKa1). Then the first (hydro)quinone group deprotonates, and the slope changes to 30 mV/pH unit until pH 10 (pKa2) and E^0’ becomes pH-independent. […] Thus, if one can predict or measure reasonable values for these pKa values, it should be possible to predict which ones will have a more negative or positive E^0’ at higher pH.

[6] = pH 0 (1 M H2SO4), midpoint of CV peak potentials, about 1 mM, acetone added for insoluble compounds
[7] = pH 13 (1 M NaOH), midpoint of CV peak potentials
[8] = 1 M KCl supporting electrolyte prepared from MilliQ water, saline or isotonic, thermodynamic from solid, Solubility, 1 M KCl, room temperature
[9] = 1 M H2SO4 supporting electrolyte prepared from MilliQ water, aqueous buffer, thermodynamic from solid, Solubility, 1 M H2SO4, room temperature, interval just after / before full dissolution
[10] = pH 7 (0.5 M phosphate buffer), midpoint of CV peak potentials

| Molecule | Peak current ratio ([2]; pH 0) | formal redox potential E0' [2, 6] | Peak current ratio ([2]; pH 7) | Peak current ratio ([2]; pH 13) | solubility [4, 8] [mM] | Comment: behaviour of the solution upon standing ([3]; in KOH (1 M)) | Electrochemical reversibility ([2]; pH 13) | solubility [4, 9] [mM] | also measured |
| --- | --- | --- | --- | --- | --- | --- | --- | --- | --- |
| O=C(O)C1=C(C(=O)O)C(=O)C(C(=O)O)=C(C(=O)O)C1=O [tetracarboxyl para benzoquinone] |  |  |  |  |  |  |  |  | calculated standard potential [1]: > 1 VNHE; chemical stability (in water) [1]: decomposes after synthesis |
| N#CC1=C(C#N)C(=O)C(C#N)=C(C#N)C1=O [tetracyano benzoquinone] |  |  |  |  |  |  |  |  | E0' estimated higher than that of dicyano dichloro benzoquinone [1]: 0.3 V; chemical stability (in water) [1]: Chemical instability in water |
| N#CC1=C(C#N)C(=O)C(Cl)=C(Cl)C1=O [dicyano dichloro benzoquinone] |  |  |  |  |  |  |  |  | E0' [1]: 0.9 VNHE; chemical stability (in water) [1]: readily reacts with water |
| O=C1c2ccccc2C(=O)c2cc(S(=O)(=O)O)ccc21 [AQS(2), 9,10-anthraquinone-2-sulfonate sodium] | 1.0(1) | 0.163(3) VNHE and 0.163 VNHE | 0.88(1) | 1.2(2) |  |  |  |  | formal redox potential E0' [2, 7]: -0.334(3) VNHE; Electrochemical reversibility ([2]; pH not specified): Reversible; Comment: behaviour of the solution upon standing ([3]; electrolyte not stated): Phase separation |
| O=C1c2ccccc2C(=O)c2c1cc(S(=O)(=O)O)c(O)c2O [AQS(2)DH, 3,4-dihydroxy-9,10-anthraquinone-2-sulfonate sodium] | 0.9(1) |  | 0.85(6) | 1.1(1) | < 10 | T hixotropic behavior; also recorded: thixotropy was observed |  |  | Electrochemical reversibility ([2]; pH not specified): Quasie versib le; solubility ([4]; 1 M H2SO4, room temperature, interval just after / before full dissolution): barely soluble |
| hexahydroxy anthraquinone |  |  |  |  |  |  |  |  | experimentally obtained E0' ([1]; pH 13): about −0.7 VNHE |
| O=C1c2ccc(S(=O)(=O)O)cc2C(=O)c2ccc(S(=O)(=O)O)cc21 [AQDS(2,6), AQ-2,6-disulfonate] |  |  |  |  |  |  |  |  | E0' ([1]; pH 0): ~0.166 VNHE |
| O=C1c2cccc(O)c2C(=O)c2c(O)cccc21 [AQDH(1,8), 1,8-dihydroxy-9,10-anthraquinone] |  |  |  |  |  |  | Reversible |  | pKa ([5]; read-out: pKa1 of the (hydro)quinone groups): ~4; pKa ([5]; read-out: pKa2 of the (hydro)quinone groups): > 13 |
| O=C1c2cccc(S(=O)(=O)[O-])c2C(=O)c2c1cccc2S(=O)(=O)[O-].[K+].[K+] [AQDS(1,8), 9,10-anthraquinone-1,8-disulfonate dipotassium] | 1.04(7) | 0.03 VNHE | 0.4(1) | 1.0(3) |  |  | Reversible |  | Electrochemical reversibility ([2]; pH 0): Quasireversible; formal redox potential E0' ([2]; pH 0 (1 M H2SO4); midpoint of CV peak potentials; about 1 mM; acetone added for insoluble compounds; 8)): 0.027(4) VNHE; Electrochemical reversibility ([2]; pH 7): Quasireversible; formal redox potential E0' [2, 7]: -0.464(4) VNHE; solubility compared with AQDS(2,7) and AQS(2) [4]: more than ten times lower solubility; Comment: behaviour of the solution upon standing ([3]; electrolyte not stated): Phase separation |
| O=C1c2ccccc2C(=O)c2c1ccc(O)c2O [AQDH(1,2), 1,2-dihydroxy-9,10-anthraquinone] | 0.73(7) | 0.005(4) VNHE | 0.5(1) | 1.2(1) | < 10 | T hixotropic; also recorded: thixotropy was observed | Quasireversible | < 10 |  |
| O=C1c2cccc(S(=O)(=O)[O-])c2C(=O)c2cccc(S(=O)(=O)[O-])c21.[Na+].[Na+] [AQDS(1,5), 9,10-anthraquinone-1,5-disulfonate disodium] | 1.7(1) | −0.03 VNHE | 0.49(3) | 1.17(4) |  |  | Reversible |  | Electrochemical reversibility ([2]; pH 0): Quasireversible; Electrochemical reversibility ([2]; pH 7): Quasireversible; solubility ([4]; 1 M KOH supporting electrolyte prepared from MilliQ water, aqueous buffer, thermodynamic from solid, Solubility, 1 M KOH, room temperature): < 10 mM; solubility compared with AQDS(2,7) and AQS(2) [4]: more than ten times lower solubility; Comment: behaviour of the solution upon standing ([3]; electrolyte not stated): Phase separation |
| O=C(O)c1cc(O)c2c(c1)C(=O)c1cccc(O)c1C2=O [AQDH(4,5)CA, 4,5-dihydroxy-9,10-anthraquinone-2-carboxylic acid] | 0.39(6) | 0.041(9) VNHE | 0.69(8) | 1.23(7) | < 10 | thixotropy was observed | Reversible | < 10 | Electrochemical reversibility ([2]; pH 7): Quasireversible; formal redox potential E0' [2, 10]: -0.267(1) VNHE; formal redox potential E0' [2, 7]: around −0.53 VNHE; formal redox potential E0' ([2]; pH 13 (1 M NaOH), midpoint of CV peak potentials, listed as AQDH(4,5)C A): -0.546(2) VNHE; Comment: behaviour of the solution upon standing ([3]; in KOH (1 M), listed as AQDH(4,5)C A): T hixotr opic behavior |
| CC1=C(C)C(=O)C(C)=C(C)C1=O [duroquinone] |  |  |  |  |  |  |  |  | potential ([1]; aqueous (acidic and neutral) solutions): 0.5 VNHE; chemical stability (in water) [1]: electrochemically reversible and chemically stable |
| O=C1c2ccc(O)c(O)c2C(=O)c2c(O)ccc(O)c21 [AQTH(1,2), 1,2,5,8-tetrahydroxy-9,10-anthraquinone] |  | -0.084(5) VNHE |  | 0.96(6) | < 10 |  | Reversible | < 10 | formal redox potential E0' [2, 10]: -0.414(3) VNHE; formal redox potential E0' [2, 7]: -0.69(1) VNHE |
| O=C1c2ccccc2C(=O)c2c(O)ccc(O)c21 [AQDH(1,4), 1,4-dihydroxy-9,10-anthraquinone] | 0.6(1) |  | 0.4(2) | 1.05(3) | < 10 | T hixotropic; also recorded: thixotropy was observed | Reversible | < 10 |  |
| O=C1c2cccc(O)c2C(=O)c2c(O)cc(CO)cc21 [AQDH(1,8)MH, 1,8-dihydroxy-3-(hydroxymethyl)-9,10-anthraquinone] | 0.58(4) |  | 0.51(4) | 1.03(1) | < 10 | thixotropy was observed | Reversible | < 10 | Comment: behaviour of the solution upon standing ([3]; in KOH (1 M), listed as AQDG(1,8)MH): T hixotropic behavior |
